This passage reports IC50 results from patent US20260124222A1, “ISOTHIAZOLYLCARBOXAMIDE COMPOUNDS AND THEIR USE IN THERAPY” (HOTSPOT THERAPEUTICS, INC., priority 2022, published 2026).

For this test, the target named is T1, Avi-tagged FL MALT-1 (Homo sapiens, UniProt Q9UDY8).
T1 construct: Avi-tagged FL MALT-1 (Pharmaron, stored at −70° C.); Avi-tag; purchased Pharmaron
T1 sequence (Q9UDY8 1-824): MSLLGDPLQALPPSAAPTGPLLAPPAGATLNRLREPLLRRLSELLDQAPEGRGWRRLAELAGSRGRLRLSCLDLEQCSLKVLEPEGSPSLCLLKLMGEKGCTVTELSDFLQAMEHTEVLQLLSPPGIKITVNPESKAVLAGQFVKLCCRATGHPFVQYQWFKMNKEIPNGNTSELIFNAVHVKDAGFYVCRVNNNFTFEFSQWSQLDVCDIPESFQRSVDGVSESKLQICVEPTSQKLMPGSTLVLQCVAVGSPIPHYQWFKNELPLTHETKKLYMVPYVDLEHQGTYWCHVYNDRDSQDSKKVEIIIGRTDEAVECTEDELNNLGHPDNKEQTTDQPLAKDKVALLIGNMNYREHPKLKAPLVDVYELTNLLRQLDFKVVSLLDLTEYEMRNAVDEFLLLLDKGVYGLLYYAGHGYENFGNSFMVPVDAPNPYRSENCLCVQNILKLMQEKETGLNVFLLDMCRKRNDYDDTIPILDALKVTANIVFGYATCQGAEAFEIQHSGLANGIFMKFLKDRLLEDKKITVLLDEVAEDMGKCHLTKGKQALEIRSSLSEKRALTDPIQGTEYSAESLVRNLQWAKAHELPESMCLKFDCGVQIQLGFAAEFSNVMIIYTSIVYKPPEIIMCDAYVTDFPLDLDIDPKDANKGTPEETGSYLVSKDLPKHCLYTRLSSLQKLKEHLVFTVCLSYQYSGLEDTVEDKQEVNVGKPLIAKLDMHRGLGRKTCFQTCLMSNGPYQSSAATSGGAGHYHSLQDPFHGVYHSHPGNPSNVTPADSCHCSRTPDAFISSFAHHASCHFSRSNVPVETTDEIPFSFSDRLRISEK
The experiment in a line: MALT-1 Fluorogenic Peptide Cleavage Assay (MALT1 inhibition assay). The class given is biochemical. As to conditions: Ac-LRSR-AMC peptide substrate; 30 min pre-incubation, 90 min reaction at room temperature; fluorescence. An outline of the steps: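 Full-length Avi-tagged enzyme preincubated 30 min at room temperature with compound (2% DMSO final) in HEPES pH 6.89 buffer with sodium citrate, TCEP, EDTA and CHAPS. Ac-LRSR-AMC substrate added at Km or 10×Km (working stocks 50 or […] μM); fluorescence (ex 342/em 441 nm) after 90 min; IC50 from sigmoidal fit.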

SMILES strings stand for the structures.

For `O=C(Nc1ccc(C(=O)N2CC(O)C2)c(Cl)c1)c1snc(-c2ccccc2)c1C1CC1` [I-17, N-(3-CHLORO-4-(3-HYDROXYAZETIDINE-1-CARBONYL)PHENYL)-3-PHENYL-4—(CYCLOPROPYL)ISOTHIAZOLE-5-CARBOXAMIDE], the 50% inhibitory concentration (IC50) is not above 400 nM. In the case of `Cc1cccc(-c2nsc(C(=O)Nc3ccnc(C(F)(F)F)c3)c2C2CC2)c1` [I-178, 4-cyclopropyl-3-(3-methylphenyl)-N-[2-(trifluoromethyl)pyridin-4-yl]-1,2-thiazole-5-carboxamide] it was not above 400 nM; in that of `Cc1cc(NC(=O)c2snc(-c3cccc4c(=O)[nH]ccc34)c2C2CC2)ccn1` [I-200, 4-cyclopropyl-N-(2-methylpyridin-4-yl)-3-(1-oxo-1,2-dihydroisoquinolin-5-yl)isothiazole-5-carboxamide], not above 400 nM.

`N#Cc1cc(NC(=O)c2snc(-c3cccc4ncsc34)c2C2CC2)cnc1-n1nccn1` [I-100] came in with a 50% inhibitory concentration (IC50) not above 400 nM.

Take `O=C(Nc1ccnc(C(F)(F)F)c1)c1snc(-c2cccc3c(=O)[nH]ccc23)c1C1CC1` [I-189, 4-cyclopropyl-3-(1-oxo-1,2-dihydroisoquinolin-5-yl)-N-(2-(trifluoromethyl)pyridin-4-yl)isothiazole-5-carboxamide]: the IC50 was not above 400 nM. The compound `O=C(Nc1cnc(-n2nccn2)c(Cl)c1)c1snc(-c2cccc3ncccc23)c1C(F)(F)F` [I-35, N-(5-CHLORO-6-(2H-1,2,3-TRIAZOL-2-YL) PYRIDIN-3-YL)-3-(QUINOLIN-5-YL)-4-(TRIFLUOROMETHYL)ISOTHIAZOLE-5-CARBOXAMIDE] showed an IC50 not above 400 nM. In the case of `Cc1cc(-c2nsc(C(=O)Nc3ccnc(C(F)(F)F)c3)c2C2CC2)ccn1` [I-191, 4-cyclopropyl-3-(2-methylpyridin-4-yl)-N-(2-(trifluoromethyl)pyridin-4-yl)isothiazole-5-carboxamide] it was not above 400 nM.

As for `CC(C)c1nsc(C(=O)Nc2cnc(-n3nccn3)c(Cl)c2)c1C1CC1` [I-60, N-(5-CHLORO-6-(2H-1,2,3-TRIAZOL-2-YL) PYRIDIN-3-YL)-4-CYCLOPROPYL-3-ISOPROPYLISOTHIAZOLE-5-CARBOXAMIDE], the half-inhibitory concentration (IC50) was not above 400 nM. The same measure for `O=C(Nc1ccc(C(=O)N2CC(O)C2)c(Cl)c1)c1snc(-c2ccccc2)c1C(F)(F)F` [I-16, N-(3-CHLORO-4-(3-HYDROXYAZETIDINE-1-CARBONYL)PHENYL)-3-PHENYL-4-(TRIFLUOROMETHYL)ISOTHIAZOLE-5-CARBOXAMIDE]: not above 400 nM; for `Cn1nnc2c(-c3nsc(C(=O)Nc4cnc(-n5nccn5)c(C#N)c4)c3C3CC3)cccc21` [I-127]: not above 400 nM; for `COc1cncc(NC(=O)c2snc(-c3ccccc3)c2C2CC2)c1` [I-44, 4-CYCLOPROPYL-N-(5-METHOXYPYRIDIN-3-YL)-3-PHENYLISOTHIAZOLE-5-CARBOXAMIDE]: more than 2500 nM. Take `COc1c(-c2ccccc2)nsc1C(=O)Nc1cnc(-n2nccn2)c(Cl)c1` [I-39, N-(5-CHLORO-6-(2H-1,2,3-TRIAZOL-2-YL) PYRIDIN-3-YL)-4-METHOXY-3-PHENYLISOTHIAZOLE-5-CARBOXAMIDE]: the IC50 was not above 400 nM. `CN1CC(c2nsc(C(=O)Nc3cnc(-n4nccn4)c(C#N)c3)c2C(F)(F)F)C1` [I-130, N-[5-cyano-6-(1,2,3-triazol-2-yl)pyridin-3-yl]-3-(1-methylazetidin-3-yl)-4-(trifluoromethyl)-1,2-thiazole-5-carboxamide] returned a concentration for half-maximal inhibition (IC50) of more than 2500 nM. The same measure for `O=C(Nc1ccnc(C(F)(F)F)c1)c1snc(-c2ccccc2)c1C(F)(F)F` [I-15, 3-PHENYL-4-(TRIFLUOROMETHYL)-N-(2-(TRIFLUOROMETHYL)PYRIDIN-4-YL)ISOTHIAZOLE-5-CARBOXAMIDE]: not above 400 nM.

As for `CC(=O)N1CC(c2nsc(C(=O)Nc3cnc(-n4nccn4)c(C#N)c3)c2C(F)(F)F)C1` [I-129, 3-(1-acetylazetidin-3-yl)-N-[5-cyano-6-(1,2,3-triazol-2-yl)pyridin-3-yl]-4-(trifluoromethyl)-1,2-thiazole-5-carboxamide], the IC50 was more than 2500 nM. The same measure for `O=C(Nc1ccnc(C(F)(F)F)c1)c1snc(-c2ccccc2Cl)c1C1CC1` [I-135, 3-(2-chlorophenyl)-4-cyclopropyl-N-[2-(trifluoromethyl)pyridin-4-yl]-1,2-thiazole-5-carboxamide]: not above 400 nM; for `N#Cc1cc(NC(=O)c2snc(-c3ccccn3)c2C2CC2)cnc1-n1nccn1` [I-27, N-(5-CYANO-6-(2H-1,2,3-TRIAZOL-2-YL) PYRIDIN-3-YL)-4-CYCLOPROPYL-3-(PYRIDIN-2-YL)ISOTHIAZOLE-5-CARBOXAMIDE]: not above 400 nM; for `O=C(Nc1ccnc(C(F)(F)F)c1)c1snc(-c2ccc3scnc3c2)c1C1CC1` [I-142, 3-(1,3-benzothiazol-5-yl)-4-cyclopropyl-N-[2-(trifluoromethyl)pyridin-4-yl]-1,2-thiazole-5-carboxamide]: not above 400 nM.

`O=C(Nc1cnc(-n2nccn2)c(Cl)c1)c1snc(-c2cnc3ccccn23)c1C(F)(F)F` [I-31] gave an IC50 not above 400 nM. The same measure for `N#Cc1cccc(-c2nsc(C(=O)Nc3ccnc(C(F)(F)F)c3)c2C2CC2)c1` [I-158, 3-(3-cyanophenyl)-4-cyclopropyl-N-[2-(trifluoromethyl)pyridin-4-yl]-1,2-thiazole-5-carboxamide]: not above 400 nM; for `COc1ccccc1-c1nsc(C(=O)Nc2ccnc(C(F)(F)F)c2)c1C1CC1` [I-161, 4-cyclopropyl-3-(2-methoxyphenyl)-N-[2-(trifluoromethyl)pyridin-4-yl]-1,2-thiazole-5-carboxamide]: not above 400 nM; for `N#Cc1cc(NC(=O)c2snc(-c3ncccc3Cl)c2C2CC2)cnc1-n1nccn1` [I-28, 3-(3-CHLOROPYRIDIN-2-YL)-N-(5-CYANO-6-(2H-1,2,3-TRIAZOL-2-YL)PYRIDIN-3-YL)-4-CYCLOPROPYLISOTHIAZOLE-5-CARBOXAMIDE]: not above 400 nM. The same measure for `Cn1ccc(-c2nsc(C(=O)Nc3ccnc(C(F)(F)F)c3)c2C2CC2)n1` [I-150, 4-cyclopropyl-3-(1-methyl-1H-pyrazol-3-yl)-N-(2-(trifluoromethyl)pyridin-4-yl)isothiazole-5-carboxamide]: 1000 to 2500 nM; for `Cn1ccc2cc(NC(=O)c3snc(-c4ccccc4)c3C3CC3)ccc2c1=O` [I-98]: more than 2500 nM. In the case of `N#Cc1cc(NC(=O)c2snc(-c3cccc4c(=O)[nH]ccc34)c2C2CC2)cnc1-n1nccn1` [I-188, N-(5-cyano-6-(2H-1,2,3-triazol-2-yl)pyridin-3-yl)-4-cyclopropyl-3-(1-oxo-1,2-dihydroisoquinolin-5-yl)isothiazole-5-carboxamide] it was not above 400 nM. Turning to `Cn1cc2c(-c3nsc(C(=O)Nc4ccnc(C(F)(F)F)c4)c3C3CC3)cccc2n1` [I-157, 4-cyclopropyl-3-(2-methyl-2H-indazol-4-yl)-N-(2-(trifluoromethyl)pyridin-4-yl)isothiazole-5-carboxamide], the half-maximal inhibitory concentration (IC50) is not above 400 nM. As for `CNC(=O)c1ccc(-c2nsc(C(=O)Nc3ccnc(C(F)(F)F)c3)c2C2CC2)cc1` [I-176, 4-cyclopropyl-3-[4-(methylcarbamoyl)phenyl]-N-[2-(trifluoromethyl)pyridin-4-yl]-1,2-thiazole-5-carboxamide], the IC50 lay within 1000 to 2500 nM.

The compound `O=C(Nc1ccc(C(=O)N2CC(O)C2)c(Cl)c1)c1snc(-c2cccc3nccn23)c1C1CC1` [I-190, N-(3-chloro-4-(3-hydroxyazetidine-1-carbonyl)phenyl)-4-cyclopropyl-3-(imidazo[1,2-a]pyridin-5-yl)isothiazole-5-carboxamide] had an IC50 not above 400 nM. The same measure for `O=C(Nc1cnc(-n2nccn2)c(Cl)c1)c1snc(-c2ccccc2)c1C(F)(F)F` [I-7, N-(5-CHLORO-6-(2H-1,2,3-TRIAZOL-2-YL) PYRIDIN-3-YL)-3-PHENYL-4-(TRIFLUOROMETHYL)ISOTHIAZOLE-5-CARBOXAMIDE]: not above 400 nM.

Compound `O=C(Nc1cnc(-n2nccn2)c(Cl)c1)c1cc(-c2ccccc2)ns1` [I-2, N-(5-CHLORO-6-(2H-1,2,3-TRIAZOL-2-YL)PYRIDIN-3-YL)-3-PHENYLISOTHIAZOLE-5-CARBOXAMIDE] registered a concentration for half-maximal inhibition (IC50) of 1000 to 2500 nM.

Compound `O=C(Nc1ccnc(C(F)(F)F)c1)c1snc(-c2ccccc2)c1C1CC1` [I-26, 3-PHENYL-4-CYCLOPROPYL-N-(2-(TRIFLUOROMETHYL)PYRIDIN-4-YL)ISOTHIAZOLE-5-CARBOXAMIDE] registered an IC50 not above 400 nM. Compound `Cc1cc(NC(=O)c2snc(-c3ccccc3)c2C2CC2)ccn1` [I-196, 4-cyclopropyl-N-(2-methylpyridin-4-yl)-3-phenylisothiazole-5-carboxamide] had a half-maximal inhibitory concentration (IC50) not above 400 nM.
